Experimental data: publication PMC2747684, “Sustained antiproliferative mechanisms by RB24, a targeted precursor of multiple inhibitors of epidermal growth factor receptor and a DNA alkylating agent in the A431 epidermal carcinoma of the vulva cell line” (British Journal of Cancer, 2004)

Key:
[1] = target: T1, epidermal growth factor receptor (EGFR) (Homo sapiens, UniProt P00533)
[2] = target: T1, epidermal growth factor receptor (EGFR); experiment: EGF-induced EGFR autophosphorylation in A431 cells (Western blot), with washout reversibility assay; format: cell-based

T1 sequence (P00533 25-1210): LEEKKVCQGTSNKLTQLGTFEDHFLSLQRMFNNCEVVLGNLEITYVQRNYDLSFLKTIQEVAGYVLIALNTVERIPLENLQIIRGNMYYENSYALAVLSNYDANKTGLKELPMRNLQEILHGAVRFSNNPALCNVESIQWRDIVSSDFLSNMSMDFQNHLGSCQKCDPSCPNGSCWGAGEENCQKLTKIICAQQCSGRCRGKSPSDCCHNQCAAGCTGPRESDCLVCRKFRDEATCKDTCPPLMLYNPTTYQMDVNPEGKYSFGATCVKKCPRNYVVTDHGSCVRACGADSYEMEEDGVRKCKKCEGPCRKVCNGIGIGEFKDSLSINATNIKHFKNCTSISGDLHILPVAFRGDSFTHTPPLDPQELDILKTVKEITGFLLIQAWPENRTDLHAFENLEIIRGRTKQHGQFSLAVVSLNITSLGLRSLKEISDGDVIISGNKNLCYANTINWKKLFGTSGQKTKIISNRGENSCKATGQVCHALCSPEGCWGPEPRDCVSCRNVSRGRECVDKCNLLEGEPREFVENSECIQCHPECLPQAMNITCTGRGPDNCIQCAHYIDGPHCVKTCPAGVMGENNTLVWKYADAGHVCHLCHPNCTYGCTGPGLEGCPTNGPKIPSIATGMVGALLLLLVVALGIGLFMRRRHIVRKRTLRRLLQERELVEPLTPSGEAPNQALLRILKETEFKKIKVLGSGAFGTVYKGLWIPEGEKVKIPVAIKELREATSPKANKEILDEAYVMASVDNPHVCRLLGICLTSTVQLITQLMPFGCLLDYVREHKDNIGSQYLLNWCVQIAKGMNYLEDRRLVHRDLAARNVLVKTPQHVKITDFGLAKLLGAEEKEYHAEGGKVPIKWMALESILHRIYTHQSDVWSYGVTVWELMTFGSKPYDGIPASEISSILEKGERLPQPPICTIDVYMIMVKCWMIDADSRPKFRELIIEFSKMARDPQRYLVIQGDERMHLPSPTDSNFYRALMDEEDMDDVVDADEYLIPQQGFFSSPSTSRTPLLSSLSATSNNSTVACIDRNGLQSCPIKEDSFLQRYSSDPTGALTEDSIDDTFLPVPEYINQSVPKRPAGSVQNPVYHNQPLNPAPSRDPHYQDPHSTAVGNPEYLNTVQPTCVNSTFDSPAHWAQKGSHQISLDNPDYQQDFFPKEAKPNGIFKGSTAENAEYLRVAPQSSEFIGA

SMILES	EGFR autophosphorylation in A431 cells at 30 μM, before and after washout (Weste) [1]	IC50 [2] [µM]
CN(CO)/N=N/c1ccc2ncnc(Nc3cccc(Br)c3)c2c1 [RB14]	irreversible inhibition was observed in cells exposed to the daughter molecules, RB14 and ZR08	
CC(=O)OCN(C)/N=N/c1ccc2ncnc(Nc3cccc(Br)c3)c2c1 [RB24]		~2
Nc1ccc2ncnc(Nc3cccc(Br)c3)c2c1 [RB10]	the naked inhibitor, RB10, was shown to have completely reversible inhibition of EGFR autophosphorylation	
